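GI50 marks 50% less growth. TGI denotes the concentration required for complete inhibition of growth.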
What was measured:
Assay in all cases: growth of human tumour cells (NCI), 384-well format
HS 578T breast = tested on: HS 578T breast
SNB-75 CNS = tested on: SNB-75 CNS
NCI-H522 lung = tested on: NCI-H522 lung
786-0 renal = tested on: 786-0 renal
SNB-19 CNS = tested on: SNB-19 CNS
IGROV1 ovarian = tested on: IGROV1 ovarian
HOP-62 NSCLC = tested on: HOP-62 NSCLC
UACC-62 melanoma = tested on: UACC-62 melanoma
DU-145 prostate = tested on: DU-145 prostate
LOX IMVI melanoma = tested on: LOX IMVI melanoma
NCI-H460 NSCLC = tested on: NCI-H460 NSCLC
UACC-257 melanoma = tested on: UACC-257 melanoma
NCI-H322M lung = tested on: NCI-H322M lung
HCT-116 colon = tested on: HCT-116 colon
K-562 leukemia = tested on: K-562 leukemia
SN12C renal = tested on: SN12C renal
RXF 393 renal = tested on: RXF 393 renal
NCI/ADR-RES ovarian = tested on: NCI/ADR-RES ovarian
U251 glioblastoma = tested on: U251 glioblastoma
MDA-MB-468 breast = tested on: MDA-MB-468 breast
MOLT-4 leukemia = tested on: MOLT-4 leukemia
TK-10 renal = tested on: TK-10 renal
HL-60(TB) leukemia = tested on: HL-60(TB) leukemia
PC-3 prostate = tested on: PC-3 prostate
OVCAR-8 ovarian = tested on: OVCAR-8 ovarian
SF-539 CNS = tested on: SF-539 CNS
EKVX NSCLC = tested on: EKVX NSCLC
SK-MEL-5 melanoma = tested on: SK-MEL-5 melanoma
HT29 colon = tested on: HT29 colon
COLO 205 colon = tested on: COLO 205 colon
MCF7 breast = tested on: MCF7 breast
ACHN renal = tested on: ACHN renal
SK-MEL-2 melanoma = tested on: SK-MEL-2 melanoma
MDA-MB-435 melanoma = tested on: MDA-MB-435 melanoma
T-47D breast = tested on: T-47D breast
RPMI-8226 leukemia = tested on: RPMI-8226 leukemia
A498 renal = tested on: A498 renal
HOP-92 NSCLC = tested on: HOP-92 NSCLC
HCT-15 colon = tested on: HCT-15 colon
OVCAR-5 ovarian = tested on: OVCAR-5 ovarian
SK-MEL-28 melanoma = tested on: SK-MEL-28 melanoma
SW-620 colon = tested on: SW-620 colon
MDA-MB-231 breast = tested on: MDA-MB-231 breast
A549 NSCLC = tested on: A549 NSCLC
KM12 colon = tested on: KM12 colon
SF-295 CNS = tested on: SF-295 CNS
UO-31 renal = tested on: UO-31 renal
M14 melanoma = tested on: M14 melanoma
CAKI-1 renal = tested on: CAKI-1 renal
CCRF-CEM leukemia = tested on: CCRF-CEM leukemia
HCC-2998 colon = tested on: HCC-2998 colon
OVCAR-3 ovarian = tested on: OVCAR-3 ovarian
BT-549 breast = tested on: BT-549 breast
SF-268 CNS = tested on: SF-268 CNS
OVCAR-4 ovarian = tested on: OVCAR-4 ovarian
NCI-H23 lung = tested on: NCI-H23 lung
NCI-H226 lung = tested on: NCI-H226 lung
MALME-3M melanoma = tested on: MALME-3M melanoma
SK-OV-3 ovarian = tested on: SK-OV-3 ovarian

Molecule `Cc1c(NC(=O)c2cc(C(N)=O)nc3cc(F)ccc23)c(C(F)(F)F)nn1Cc1ccc(C#N)cc1` has a GI50 (HS 578T breast) of 0.022 µM, a TGI (HS 578T breast) of 0.123 µM and a GI50 (SNB-75 CNS) of 12.2 µM. It also gave a TGI (SNB-75 CNS) of 27 µM, a GI50 (NCI-H522 lung) of 4.54 µM and a TGI (NCI-H522 lung) of 27.8 µM. It also gave a GI50 ([…]-0 renal) of 0.319 µM, a TGI (786-0 renal) of 12.3 µM and a GI50 (SNB-19 CNS) of 1.81 µM. The TGI (SNB-19 CNS) was 12.3 µM, the GI50 (IGROV1 ovarian) was 1.69 µM and the TGI (IGROV1 ovarian) was 8.2 µM. It also gave a GI50 (HOP-62 NSCLC) of 3.3 µM, a TGI (HOP-62 NSCLC) of 16.5 µM and a GI50 (UACC-62 melanoma) of 2.78 µM. It also gave a TGI (UACC-62 melanoma) of 15.4 µM, a GI50 (DU-145 prostate) of 0.0752 µM and a TGI (DU-145 prostate) of 2.43 µM. It also gave a GI50 (LOX IMVI melanoma) of 1.67 µM, a TGI (LOX IMVI melanoma) of 12.8 µM and a GI50 (NCI-H460 NSCLC) of 2.87 µM. The TGI (NCI-H460 NSCLC) was 16.3 µM, the GI50 (UACC-257 melanoma) was 33.4 µM and the TGI (UACC-257 melanoma) was > 100 µM. For the same molecule, the GI50 (NCI-H322M lung) was 1.71 µM, the TGI (NCI-H322M lung) was 12.9 µM and the GI50 (HCT-116 colon) was 1.97 µM. It also gave a TGI (HCT-116 colon) of 12.2 µM, a GI50 (K-562 leukemia) of 5.92 µM and a TGI (K-562 leukemia) of 22.3 µM. It also gave a GI50 (SN12C renal) of 0.237 µM, a TGI (SN12C renal) of 12.1 µM and a GI50 (RXF 393 renal) of 0.693 µM. It also gave a TGI (RXF 393 renal) of 5.32 µM, a GI50 (NCI/ADR-RES ovarian) of 1.35 µM and a TGI (NCI/ADR-RES ovarian) of 2.87 µM. The GI50 (U251 glioblastoma) was 0.974 µM, the TGI (U251 glioblastoma) was 12.9 µM and the GI50 (MDA-MB-468 breast) was 2.66 µM. The TGI (MDA-MB-468 breast) was 13.4 µM, the GI50 (MOLT-4 leukemia) was 0.11 µM and the TGI (MOLT-4 leukemia) was 2.02 µM. The GI50 (TK-10 renal) was 1.37 µM, the TGI (TK-10 renal) was 5.06 µM and the GI50 (HL-60(TB) leukemia) was 1.06 µM. It also gave a TGI (HL-60(TB) leukemia) of 2.38 µM, a GI50 (PC-3 prostate) of 0.0532 µM and a TGI (PC-3 prostate) of 0.276 µM. It also gave a GI50 (OVCAR-8 ovarian) of 1.62 µM, a TGI (OVCAR-8 ovarian) of 5.83 µM and a GI50 (SF-539 CNS) of 5.05 µM. The TGI (SF-539 CNS) was 27.2 µM, the GI50 (EKVX NSCLC) was 16.1 µM and the TGI (EKVX NSCLC) was 66.3 µM. For the same molecule, the GI50 (SK-MEL-5 melanoma) was 12.3 µM, the TGI (SK-MEL-5 melanoma) was 54.8 µM and the GI50 (HT29 colon) was 0.134 µM. The TGI (HT29 colon) was 1.31 µM, the GI50 (COLO 205 colon) was 0.102 µM and the TGI (COLO 205 colon) was 1.33 µM. For the same molecule, the GI50 (MCF7 breast) was 0.198 µM, the TGI (MCF7 breast) was 1.22 µM and the GI50 (ACHN renal) was 2.54 µM. For the same molecule, the TGI (ACHN renal) was 27.1 µM, the GI50 (SK-MEL-2 melanoma) was 17.4 µM and the TGI (SK-MEL-2 melanoma) was 35.5 µM. The GI50 (MDA-MB-435 melanoma) was 17.1 µM, the TGI (MDA-MB-435 melanoma) was > 100 µM and the GI50 (T-47D breast) was 0.151 µM. The TGI (T-47D breast) was 11.5 µM, the TGI (RPMI-8226 leukemia) was 0.163 µM and the GI50 (A498 renal) was 0.742 µM. For the same molecule, the TGI (A498 renal) was 15.4 µM, the GI50 (HOP-92 NSCLC) was 0.633 µM and the TGI (HOP-92 NSCLC) was 7.03 µM. The GI50 (HCT-15 colon) was 14.1 µM, the TGI (HCT-15 colon) was > 100 µM and the GI50 (OVCAR-5 ovarian) was 2.81 µM. For the same molecule, the TGI (OVCAR-5 ovarian) was 9.74 µM, the GI50 (SK-MEL-28 melanoma) was 18.3 µM and the TGI (SK-MEL-28 melanoma) was > 100 µM. For the same molecule, the GI50 (SW-620 colon) was 4.76 µM, the TGI (SW-620 colon) was 33.9 µM and the GI50 (MDA-MB-231 breast) was 5.69 µM. The TGI (MDA-MB-231 breast) was 41.6 µM, the GI50 (A549 NSCLC) was 2 µM and the TGI (A549 NSCLC) was 15.6 µM. The GI50 (KM12 colon) was 0.142 µM, the TGI (KM12 colon) was 1.9 µM and the GI50 (SF-295 CNS) was 1.07 µM. The TGI (SF-295 CNS) was 5.5 µM, the GI50 (UO-31 renal) was 0.208 µM and the TGI (UO-31 renal) was 9.83 µM. It also gave a GI50 (M14 melanoma) of 11.1 µM, a TGI (M14 melanoma) of 24.9 µM and a GI50 (CAKI-1 renal) of 8.33 µM. It also gave a TGI (CAKI-1 renal) of 37.4 µM, a GI50 (CCRF-CEM leukemia) of 0.0337 µM and a TGI (CCRF-CEM leukemia) of 10.3 µM. The GI50 (HCC-2998 colon) was 0.0956 µM, the TGI (HCC-2998 colon) was 1.69 µM and the GI50 (OVCAR-3 ovarian) was 0.0509 µM. For the same molecule, the TGI (OVCAR-3 ovarian) was 1.19 µM, the GI50 (BT-549 breast) was 0.605 µM and the TGI (BT-549 breast) was 12.1 µM. For the same molecule, the GI50 (SF-268 CNS) was 6.04 µM, the TGI (SF-268 CNS) was 28.2 µM and the GI50 (OVCAR-4 ovarian) was 0.0803 µM. It also gave a TGI (OVCAR-4 ovarian) of 1.7 µM, a GI50 (NCI-H23 lung) of 2.93 µM and a TGI (NCI-H23 lung) of 16.5 µM. The GI50 (NCI-H226 lung) was 0.0842 µM, the TGI (NCI-H226 lung) was 8.1 µM and the GI50 (MALME-3M melanoma) was 2.94 µM. It also gave a TGI (MALME-3M melanoma) of 16.4 µM, a GI50 (SK-OV-3 ovarian) of 0.132 µM and a TGI (SK-OV-3 ovarian) of 0.313 µM.
